Test results reported in patent US8481011B2, “Use of polyunsaturated compounds as whitening agents” (Pierre Fabre Dermo-Cosmetique, priority 2005, dated 2013).

Legend:
Assay type in all cases: cell-based
[1] = test system: BDV II murine keratinocytes; test: MTT cellular respiration toxicity test on BDV II keratinocytes; conditions: for % MTT / IC50: BDV II murine keratinocytes; for % MTT: concentration 10 μM, cell viability; for IC50: toxicity; for toxicity ranking on BDV II keratinocytes: ranking in words, viability according to concentration
Source text: (§1) The objective of these tests is to measure the toxicity of the new retinoids on keratinocyte and melanocyte cells.
(§2) The method used is a cellular respiration test with the MTT (thiazolile blue) in order to assess cells that are still living.
(§3) The MTT test gives a cellular respiration index; this involves a substrate of dehydrogenases in general and dehydrogenase succinate in particular. The MTT, yellow, partially soluble in water, is reduced in a violet compound, insoluble in water, but soluble in organic solvents (DMSO).
(§4) Prepare a 12 mM solution (5 mg/ml) of MTT in water or the culture medium.
(§5) Dilute this solution to 1:10 in the supernatant fluid or suspension of cells (final MTT 1.2 mM or 0.5 mg/ml), then leave to incubate for 3 hours at 37° C.
(§6) Aspirate the supernatant fluid, the dissolve the violet crystals of formazan MTT in DMSO.
(§7) Read the optical density of the solution at 550 nm (dilute beforehand as required).
(§8) Calibration line: MTT formazan 0-200 μM.

[2] = test system: B16 murine melanocytes; test: MTT cellular respiration toxicity test on B16 melanocytes; conditions: for IC50: toxicity; for % MTT: concentration 10 μM, cell viability
Source text: as §1, §2, §3, §4, §5, §6, §7, §8

[3] = test system: B16 murine melanocytes; test: Study of depigmenting activity (melanin dosage); conditions: at infratoxic doses, in words
Description: The objective of these tests is to measure the depigmenting activity of new retinoids according to their concentration.
The melanin is dosed according to the method described by S. Besson et al., Dermatology Archives. 133:331-336 (1997)′.
Digestion plug: 100 mM NaCl, to mm-Tri-HCl, 1% SDS, 50 mM EDTA, pH 8.
For 50 ml: 292 mg NaCl, 299 mg tris acid, 73 mg tris base, 931 mg EDTA disodium dehydrate, 500 mg SDS, adjust pH (≈5.5) to 8.0 with concentrated NaOH.
K proteinase 10 mg/ml in the digestion plug.
Prepare tubes containing synthetic melanin at concentrations of between 2.5 and 80 μg/ml in the DMSO.
For the cells, determine the protein concentration beforehand, centrifuge in 2 ml tubes and remove the supernatant.
In 2 ml tubes containing a cell remainder, add 300 μl of digestion buffer and 3 μl of K proteinase.
Incubate for 2 hours at 50° C., then a night at 37° C.
Top up the volume to 1 ml with water, then sound test.
Centrifuge for 10 minutes at 20,000 g, drain off all the supernatant (clear) then dissolve the dry melanin remainder in 500-1000 μl of DMSO.
Measure the absorbency at 375 nm and check the spectrum.

## CC1=C(/C=C/C(C)=C/C=C/C(C)=C/C(=O)OC(C)(C)C)C(C)(C)CCC1=O [Example 3, tert-butylic ester of (2E,4E,6E,8E)-3,7-dimethyl-9-(2,6,6-trimethyl-3-oxo-cyclohex-1-enyl)-nona-2,4,6,8-tetraenoic acid]
[1]
  % MTT: 85%
[1]; Mus musculus, Keratinocyte
  IC50: 60 µM
[2]; Mus musculus, Melanocyte
  IC50: 30 µM
[2]
  % MTT: 80%
[3]
  depigmenting activity (melanin): net depigmenting efficacy promotes

## CC1=C(/C=C/C(C)=C/C=C/C(C)=C/C(=O)OC(C)(C)C)C(C)(C)CCC1O (centres unmarked) [Example 4, tert-butylic ester of (2E,4E,6E,8E)-9-(3-hydroxy-2,6,6-trimethyl-cyclohex-1-enyl)-3,7-dimethyl-nona-2,4,6,8-tetraenoic acid]
[1]
  % MTT: 84%
[1]; Mus musculus, Keratinocyte
  IC50: 70 µM
[2]; Mus musculus, Melanocyte
  IC50: 20 µM
[2]
  % MTT: 62%

## COC(=O)/C=C(C)/C=C/C=C(C)/C=C/C1=C(C)C(=O)CCC1(C)C [Example 5, Methylic ester of (2E,4E,6E,8E)-9-[3-(3-oxo)-2,6,6-trimethyl-cyclohex-1-enyl]-3,7-dimethyl-nona-2,4,6,8-tetraenoic acid]
[1]
  % MTT: 59%
  IC50: 15 µM
  toxicity ranking on BDV II keratinocytes: then examples 5 and 6
[2]
  % MTT: 86%
  IC50: 60 µM
[3]
  depigmenting activity (melanin): net depigmenting efficacy promotes

## CC1=C(/C=C/C(C)=C/C=C/C(C)=C/C(=O)O)C(C)(C)CCC1O (centres unmarked) [Example 7, (2E,4E,6E,8E)-9-[3-(3-hydroxy)-2,6,6-trimethyl-cyclohex-1-enyl]-3,7-dimethyl-nona-2,4,6,8-tetraenoic acid]
[1]
  % MTT: 86%
  toxicity ranking on BDV II keratinocytes: least toxic
[1]; Mus musculus, Keratinocyte
  IC50: > 100 µM
[2]; Mus musculus, Melanocyte
  IC50: 35 µM
[2]
  % MTT: 69%

## CC(=O)OC1CCC(C)(C)C(/C=C/C(C)=C/C=C/C(C)=C/C(=O)OC(C)(C)C)=C1C (centres unmarked) [Example 8, tert-butylic ester of (2E,4E,6E,8E)-9-[3-(3-acetoxy)-2,6,6-trimethyl-cyclohex-1-enyl]-3,7-dimethyl-nona-2,4,6,8-tetraenoic acid]
[1]
  % MTT: 82%
  toxicity ranking on BDV II keratinocytes: least toxic
[1]; Mus musculus, Keratinocyte
  IC50: > 100 µM
[2]; Mus musculus, Melanocyte
  IC50: 60 µM
[2]
  % MTT: 82%
[3]
  depigmenting activity (melanin): net depigmenting efficacy promotes

## CC(=O)OC/C=C(C)/C=C/C=C(C)/C=C/C1=C(C)C(=O)CCC1(C)C [Example 11, (2E,4E,6E,8E)-9-[3-(3-oxo)-2,6,6-trimethyl-cyclohex-1-enyl]-3,7-dimethyl-nona-2,4,6,8-tetraenyl acetate]
[1]
  % MTT: 60%
[1]; Mus musculus, Keratinocyte
  IC50: 30 µM
[2]; Mus musculus, Melanocyte
  IC50: 70 µM
[2]
  % MTT: 86%

## CC1=C(/C=C/C(C)=C/C=C/C(C)=C/C(=O)O)C(C)(C)CCC1=O [Example 405, 4-oxoretinoic acid]
[1]
  % MTT: 78%
  IC50: > 100 µM
[2]
  % MTT: 76%
  IC50: > 100 µM

## CC1=C(/C=C/C(C)=C/C=C/C(C)=C/C(=O)O)C(C)(C)CCC1 [RA, Retinoic acid, reference compound]
[1]
  % MTT: 40%
[1]; Mus musculus, Keratinocyte
  IC50: 3 µM
[2]; Mus musculus, Melanocyte
  IC50: 10 µM
[2]
  % MTT: 50%
